Test results taken from US20260356841A1, “HETEROCYCLIC PYRIDINONE COMPOUNDS AS TRIGGERING RECEPTOR EXPRESSED ON MYELOID CELLS 2 AGONISTS AND METHODS OF USE” (Vigil Neuroscience, Inc., priority 2023, published 2026).
pEC50: −log10 of the molar value.

The compounds below were run against T1, human TREM2 (Homo sapiens, UniProt Q9NZC2) (assay: TREM2 agonist potency by cellular phosphorylation of Spleen Tyrosine Kinase (Syk), AlphaLisa, HEK293T-hTREM2 cells). Conditions: not given.
T1 construct: expressed in transfected cells; host or cells: HEK293T (HEK293T-hTREM2 cells)
T1 sequence (Q9NZC2 19-230): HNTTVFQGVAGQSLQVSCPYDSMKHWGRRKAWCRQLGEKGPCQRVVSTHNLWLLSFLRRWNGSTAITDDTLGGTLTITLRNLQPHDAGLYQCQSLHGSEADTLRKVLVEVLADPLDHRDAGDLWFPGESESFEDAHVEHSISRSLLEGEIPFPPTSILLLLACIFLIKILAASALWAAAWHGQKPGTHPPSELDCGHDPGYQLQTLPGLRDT
T1 sequence (O43914 22-113 partner): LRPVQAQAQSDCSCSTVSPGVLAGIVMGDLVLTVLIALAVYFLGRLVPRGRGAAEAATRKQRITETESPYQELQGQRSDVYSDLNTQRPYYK
Assay type: cell-based
Procedure: Measurement of TREM2 agonist potency was done using a HEK cell line expressing human TREM2 and DAP12 (HEK293T-hTREM2 cells). Binding of small molecules to, and activation of, TREM2 increases the phosphorylation of Syk. The resultant levels of Syk phosphorylation are measured using a commercial AlphaLisa reagent kit. To perform the assay, HEK-hTREM2 cells were plated at 14,000 cells per well in a 384 well plate, in 25 μL of complete growth media and incubated at 37° C., 5% CO2 for 20-24 hours.
Prior to the assay, test compounds were diluted in the 384 well plates in assay buffer and allowed to equilibrate for 30 minutes. Growth media was removed from cell plates by inversion on blotting paper, and 25 μL of test articles in assay buffer was added to cells. Cells were incubated for 45 minutes at room temperature. After 45 minutes, assay buffer was removed and 10 μL of lysis buffer was added. Plates were shaken for 20 minutes at 350 RPM at room temperature. After complete lysis, AlphaLisa reagents were added to the lysate, and fluorescence intensity was measured using a Perkin Elmer Envision plate reader. Intensities were used to generate a standard curve, and % activation was calculated. Curve fitting was performed using Prism v9 software, log (agonist) vs response-variable slope (four parameters), and EC50s were calculated from the curve fit.
The results presented in Table B have been generated with the in vitro assay described above. This assay may be used to test any of the compounds described herein to assess and characterize a compound's ability to act as an agonist of TREM2.
For Cc1nc2cc(N3C[C@@H](C)O[C@@H](c4ccc(=O)n(C)c4)C3)nc(-c3ccc(F)cc3F)c2nc1C [Example 191, 5-((2S,6R)-4-(5-(2,4-difluorophenyl)-2,3-dimethylpyrido[3,4-b]pyrazin-7-yl)-6-methylmorpholin-2-yl)-1-methylpyridin-2 (1H)-one], the pEC50 was over 7.00.

Same assay, conditions: hTREM2 EC50 Data (HEK293 Cells); Syk phosphorylation, AlphaLisa; read-out: hTREM2 EC50
For Cc1nc2nc([C@H]3CCO[C@@H](c4ccc(=O)n(C)c4)C3)nc(C34CC(CC(F)(F)F)(C3)C4)c2nc1C [Example 54, 5-[(2R,4S)-4-[6,7-dimethyl-4-[3-(2,2,2-trifluoroethyl)-1-bicyclo[1.1.1]pentanyl]pteridin-2-yl]tetrahydro-2H-pyran-2-yl]-1-methyl-pyridin-2(1H)-one], the pEC50 was over 7.00.
Cc1nc2nc([C@H]3CCO[C@@H](c4ccc(=O)[nH]c4)C3)nc(C34CC(C(F)(F)F)(C3)C4)c2nc1C [Example 34, 5-[(2R,4S)-4-[6,7-dimethyl-4-[3-(trifluoromethyl)-1-bicyclo[1.1.1]pentanyl]pteridin-2-yl]tetrahydropyran-2-yl]-1H-pyridin-2-one] showed a pEC50 of over 7.00.
Cc1nc2cc(N3C[C@@H](C)O[C@@H](c4ccc(=O)[nH]c4)C3)nc(-c3ccc(F)cc3F)c2nc1C [Example 186, 5-((2S,6R)-4-(5-(2,4-difluorophenyl)-2,3-dimethylpyrido[3,4-b]pyrazin-7-yl)-6-methylmorpholin-2-yl)pyridin-2(1H)-one] was tested, and the pEC50 was 6.30 to 7.00.
Work on Cc1nc2nc(N3C[C@@H](C)O[C@@H](c4ccc(=O)n(N)c4)C3)nc(C34CC(C(F)(F)F)(C3)C4)c2nc1C [Example 184, 1-amino-5-[(2S,6R)-4-[6,7-dimethyl-4-[3-(trifluoromethyl)-1-bicyclo[1.1.1]pentanyl]pteridin-2-yl]-6-methyl-morpholin-2-yl]pyridin-2-one] yielded a pEC50 of over 7.00.
In the case of COc1nc2c(-c3ccc(C(F)(F)F)cc3F)nc([C@H]3CCO[C@@H](c4ccc(=O)n(C)c4)C3)nc2nc1C [Example 129, 1-methyl-5-[(2R,4S)-4-[4-[2-fluoro-4-(trifluoromethyl)phenyl]-6-methoxy-7-methyl-pteridin-2-yl]tetrahydropyran-2-yl]pyridin-2-one], the pEC50 was over 7.00.
Work on Cc1cnc2nc([C@H]3CCO[C@@H](c4ccc(=O)n(C)c4)C3)nc(C34CC(C(F)(F)F)(C3)C4)c2n1 [Example 198, 1-methyl-5-((2R,4S)-4-(6-methyl-4-(3-(trifluoromethyl)bicyclo[1.1.1]pentan-1-yl)pteridin-2-yl)tetrahydro-2H-pyran-2-yl)pyridin-2(1H)-one] yielded a pEC50 of 6.30 to 7.00.
Compound Cc1nc2c(C34CC(C(F)(F)F)(C3)C4)nc([C@H]3CCO[C@@H](c4ccc(=O)[nH]c4)C3)nc2c(=O)n1C (racemic) [Example 216, 2,3-dimethyl-6-[rac-(2R,4S)-2-(6-oxo-1H-pyridin-3-yl)tetrahydropyran-4-yl]-8-[3-(trifluoromethyl)-1-bicyclo[1.1.1]pentanyl]pyrimido[5,4-d]pyrimidin-4-one] has a pEC50 of 6.30 to 7.00.
Work on Cc1nc2nc([C@H]3CCO[C@@H](c4ccc(=O)n(C)c4)C3)nc(C34CC(Cl)(C3)C4)c2nc1C (single isomer, unassigned) [Example 40] yielded a pEC50 of over 7.00.
In the case of Cc1nc2nc([C@H]3CCO[C@@H](c4ccc(=O)n(C)c4)C3)nc(-c3ccc(C(F)(F)F)c(F)c3F)c2nc1C [Example 18, 5-[(2R,4S)-4-[4-[2,3-difluoro-4-(trifluoromethyl)-phenyl]-6,7-dimethyl-pteridin-2-yl]tetrahydropyran-2-yl]-1-methyl-pyridin-2-one], the pEC50 was 6.30 to 7.00.
C[C@@H]1CN(c2nc(-c3ccc(F)cc3F)c3sc(N(C)C)nc3n2)C[C@H](c2ccc(=O)[nH]c2)O1 [Example 173, 5-[(2S,6R)-4-[7-(2,4-difluorophenyl)-2-(dimethylamino)thiazolo[4,5-d]pyrimidin-5-yl]-6-methyl-morpholin-2-yl]-1H-pyridin-2-one] was tested, and the pEC50 was over 7.00.
For Cc1nc2nc([C@H]3CCO[C@@H](c4ccc(=O)n(C)c4)C3)nc(C3CCC(F)(F)CC3)c2nc1C [Example 28, 5-((2R,4S)-4-(4-(4,4-difluorocyclohexyl)-6,7-dimethylpteridin-2-yl)tetrahydro-2H-pyran-2-yl)-1-methylpyridin-2 (1H)-one], the pEC50 was over 7.00.
For Cc1nc2nc([C@H]3CCO[C@@H](c4ccc(=O)n(C)c4)C3)nc(C3CCC(CF)CC3)c2nc1C (stereo partly drawn) [Example 50, 5-[(2R,4S)-4-[4-[4-(fluoromethyl)-cyclohexyl]-6,7-dimethyl-pteridin-2-yl]tetrahydropyran-2-yl]-1-methyl-pyridin-2-one], the pEC50 was over 7.00.
CN(C)c1nc2nc([C@H]3CCO[C@H](c4ccc(=O)n(C)c4)C3)nc(-c3ccc(F)cc3F)c2s1 (stereo in doubt) [Example 11, 5-[(2S,4S)-4-[7-(2,4-difluorophenyl)-2-(dimethylamino)thiazolo[4,5-d]pyrimidin-5-yl]tetrahydropyran-2-yl]-1-methyl-pyridin-2-one] gave a pEC50 of 6.30 to 7.00.
In the case of CCn1cc([C@H]2C[C@@H](c3nc(C45CC(C(F)(F)F)(C4)C5)c4nc(C)c(C)nc4n3)CCO2)ccc1=O [Example 80, 5-[(2R,4S)-4-[6,7-dimethyl-4-[3-(trifluoromethyl)-1-bicyclo[1.1.1]pentanyl]pteridin-2-yl]tetrahydropyran-2-yl]-1-ethyl-pyridin-2-one], the pEC50 was over 7.00.
CCCN(CCC)n1cc([C@H]2C[C@@H](c3nc(C45CC(C(F)(F)F)(C4)C5)c4nc(C)c(C)nc4n3)CCO2)ccc1=O [Example 211, 5-[(2R,4S)-4-[6,7-dimethyl-4-[3-(trifluoromethyl)-1-bicyclo[1.1.1]pentanyl]pteridin-2-yl]tetrahydropyran-2-y1]-1-(dipropylamino)pyridin-2-one] gave a pEC50 of over 7.00.
Compound Cc1nc2nc([C@H]3CCO[C@@H](c4ccc(=O)n(C56CC(C5)C6)c4)C3)nc(C34CC(C(F)(F)F)(C3)C4)c2nc1C [Example 120, 1-(1-bicyclo[1.1.1]pentanyl)-5-[(2R,4S)-4-[6,7-dimethyl-4-[3-(trifluoromethyl)-1-bicyclo-[1.1.1]pentanyl]pteridin-2-yl]tetrahydropyran-2-yl]pyridin-2-one] has a pEC50 of over 7.00.
Work on Cc1nc2nc([C@H]3CCO[C@@H](c4ccc(=O)n(C5CC5)c4)C3)nc(C34CC(C(F)(F)F)(C3)C4)c2cc1C(F)(F)F [Example 328, 1-cyclopropyl-5-((2R,4S)-4-(7-methyl-6-(trifluoromethyl)-4-(3-(trifluoromethyl)bicyclo[1.1.1]-pentan-1-yl)pyrido[2,3-d]pyrimidin-2-yl)tetrahydro-2H-pyran-2-yl)pyridin-2(1H)-one] yielded a pEC50 of over 7.00.
With Cc1noc(-c2cc3c(C45CC(C(F)(F)F)(C4)C5)nc([C@H]4CCO[C@@H](c5ccc(=O)n(C(F)F)c5)C4)nc3nc2C)n1 [Example 352] the pEC50 was under 6.30.
In the case of C=CC(=O)Nn1cc([C@H]2C[C@@H](c3nc(C45CC(C(F)(F)F)(C4)C5)c4nc(C)c(C)nc4n3)CCO2)ccc1=O [Example 213, N-[5-[(2R,4S)-4-[6,7-dimethyl-4-[3-(trifluoromethyl)-1-bicyclo[1.1.1]pentanyl]pteridin-2-yl]tetrahydropyran-2-yl]-2-oxo-1-pyridyl]prop-2-enamide], the pEC50 was over 7.00.
In the case of Cc1nc2nc([C@H]3CCO[C@@H](c4ccc(=O)n(CC(F)F)c4)C3)nc(C34CC(C(F)(F)F)(C3)C4)c2nc1C [Example 71, 1-(2,2-difluoroethyl)-5-[(2R,4S)-4-[6,7-dimethyl-4-[3-(trifluoromethyl)-1-bicyclo[1.1.1]pentanyl]pteridin-2-yl]tetrahydropyran-2-yl]pyridin-2-one], the pEC50 was over 7.00.
Work on Cc1nc2nc([C@@H]3CCO[C@H](c4ccc(=O)n(C5CC5)c4)C3)nc(-c3ccc(C(F)(F)F)cc3F)c2nc1C [Example 65, 1-cyclopropyl-5-[(2S,4R)-4-[4-[2-fluoro-4-(trifluoromethyl)phenyl]-6,7-dimethyl-pteridin-2-yl]tetrahydropyran-2-yl]pyridin-2-one] yielded a pEC50 of over 7.00.
Compound Cc1nc2nc([C@H]3CCO[C@@H](c4ccc(=O)n(C)c4)C3)nc([C@H]3CC[C@@H](F)CC3)c2nc1C [Example 43, 5-((2R,4S)-4-(4-((1s,4R)-4-fluorocyclohexyl)-6,7-dimethylpteridin-2-yl)tetrahydro-2H-pyran-2-yl)-1-methylpyridin-2(1H)-one] has a pEC50 of over 7.00.
In the case of Cc1nc2nc([C@H]3CCO[C@@H](c4ccc(=O)n(C)c4)C3)nc(C34CC(CCF)(C3)C4)c2nc1C [Example 48, 5-((2R,4S)-4-(4-(3-(2-fluoroethyl)bicyclo[1.1.1]pentan-1-yl)-6,7-dimethylpteridin-2-yl)tetrahydro-2H-pyran-2-yl)-1-methylpyridin-2(1H)-one], the pEC50 was over 7.00.
Cc1nc2nc(C3CCO[C@@H](c4ccc(=O)n(-c5cscn5)c4)C3)nc(C34CC(C(F)(F)F)(C3)C4)c2nc1C (mixture of isomers) [Example 109, 5-((2R)-4-(6,7-dimethyl-4-(3-(trifluoromethyl)bicyclo-[1.1.1]pentan-1-yl)pteridin-2-yl)tetrahydro-2H-pyran-2-yl)-1-(thiazol-4-yl)pyridin-2(1H)-one] was tested, and the pEC50 was over 7.00.
Work on CN(C)c1nc2nc(C3CCOC(c4ccc(=O)n(C)c4)C3)nc(-c3ccc(F)cc3F)c2s1 (centres unmarked) [Example 15] yielded a pEC50 of over 7.00.
